Tested on: AMPA receptor
Test: In vitro kainate antagonistic activity: retinal spreading depression on isolated chicken retina
Format: cell-based
Conditions: isolated chicken retina preparations; spreading depression developed with 5 microM of kainate; at least 3 concentrations
Experimental: Antagonizing the effect of kainate (in vitro test)
The in vitro activity of the compounds was determined on isolated chicken retina preparations /M. J. Sheardown, Brain Res., 607, 189 (1993)/. The spreading depression was developped with 5 microM of kainate (the chemical name of kainic acid is 2-carboxy-4-isopropenyl-3-pyrrolidine-acetic acid), and the IC50 values were determined according to Sheardown. The compounds were tested in at least 3 concentrations. Compounds having AMPA antagonistic activity inhibit the response to the kainate having AMPA receptor agonistic activity, and the inhibition obtained depends on the concentration of the compounds.

| SMILES | IC50 |
| --- | --- |
| CNC(=O)N1N=C(c2ccc(N)cc2)c2cc(Cl)ccc2CC1C (stereo not shown) [Example 8, 1-(4-Aminophenyl)-8-chloro-4-methyl-3-methylcarbamoyl-4,5-dihydro-3H-2,3-benzodiazepine] | 4.6 µM |
| CC1=NN=C(c2ccc(N)cc2)c2cc3c(cc2C1)OCO3 [A, reference compound] | 9.5 µM |
| CC(=O)N1N=C(c2ccc(N)cc2)c2cc(Cl)c(Cl)cc2CC1C (stereo not shown) [Example 10, 3-Acetyl-1-(4-aminophenyl)-7,8-dichloro-4-methyl-4,5-dihydro-3H-2,3-benzodiazepine] | 2.5 µM |
| CC(=O)N1N=C(c2ccc(N)cc2)c2ccc(Cl)cc2CC1C (stereo not shown) [Example 2, 3-Acetyl-1-(4-aminophenyl)-7-chloro-4-methyl-4,5-dihdyro-3H-2,3-benzodiazepine] | 3.2 µM |
| CNC(=O)N1N=C(c2ccc(N)cc2)c2ccc(Cl)cc2CC1C (stereo not shown) [Example 4, 1-(4-Aminophenyl)-7-chloro-4-methyl-3-(methylcarbamoyl)-4,5-dihydro-3H-2,3-benzodiazepine] | 3.6 µM |
| CC(=O)N1N=C(c2ccc(N)cc2)c2cc(Cl)ccc2CC1C (stereo not shown) [Example 6, 3-Acetyl-1-(4-aminophenyl)-8-chloro-4-methyl-4,5-dihydro-3H-2,3-benzodiazepine] | 8.2 µM |
| CNC(=O)N1N=C(c2ccc(N)cc2)c2cc(Cl)c(Cl)cc2CC1C (stereo not shown) [Example 12, 1-(4-Aminophenyl)-7,8-dichloro-4-methyl-3-methylcarbamoyl-4,5-dihydro-3H-2,3-benzodiazepine] | 1.2 µM |

Reference: patent publication US5807851A, “2,3-Benzodiazepine Derivatives as non-competitive AMPA” (Egis Gyogyszergyar Rt., priority 1997, dated 1998)
